# Measurements from US11053204B2, “Pyrimidinyloxy benzene derivatives as herbicides” (FMC Corporation, priority 2015, dated 2021).
# Columns and labels:
# Format in all cases: in vivo
# [1] = system: kochia (Kochia scoparia); experiment: Test A postemergence, visual injury rating; conditions: 0 to 100 scale, 0 is no effect, 100 is complete control, approximately 10 days
# Summary of the method: (§1)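 Injury scores run from 0, no effect, to 100, complete control, judged by eye against untreated plants roughly 10 days after treatment. Chemicals carried a surfactant in a non-phytotoxic solvent and went onto loam–sand soil preemergence or onto one- to two-leaf seedlings postemergence.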
# [2] = system: wheat (Triticum aestivum); experiment: Test A postemergence, visual injury rating; conditions: 0 to 100 scale, 0 is no effect, 100 is complete control, approximately 10 days
# Summary of the method: as §1
# [3] = system: ragweed (common ragweed, Ambrosia elatior); experiment: Test A postemergence, visual injury rating; conditions: 0 to 100 scale, 0 is no effect, 100 is complete control, approximately 10 days
# Summary of the method: as §1
# [4] = system: galium (catchweed bedstraw, Galium aparine); experiment: Test A postemergence, visual injury rating; conditions: 0 to 100 scale, 0 is no effect, 100 is complete control, approximately 10 days
# Summary of the method: as §1
# [5] = system: giant foxtail (Setaria faberii); experiment: Test A postemergence, visual injury rating; conditions: 0 to 100 scale, 0 is no effect, 100 is complete control, approximately 10 days
# Summary of the method: as §1
# [6] = system: corn (Zea mays); experiment: Test A postemergence, visual injury rating; conditions: 0 to 100 scale, 0 is no effect, 100 is complete control, approximately 10 days
# Summary of the method: as §1
# [7] = system: blackgrass (Alopecurus myosuroides); experiment: Test A postemergence, visual injury rating; conditions: 0 to 100 scale, 0 is no effect, 100 is complete control, approximately 10 days
# Summary of the method: as §1
# [8] = system: pigweed (Amaranthus retroflexus); experiment: Test A postemergence, visual injury rating; conditions: 0 to 100 scale, 0 is no effect, 100 is complete control, approximately 10 days
# Summary of the method: as §1
# [9] = system: barnyardgrass (Echinochloa crus-galli); experiment: Test A postemergence, visual injury rating; conditions: 0 to 100 scale, 0 is no effect, 100 is complete control, approximately 10 days
# Summary of the method: as §1
# [10] = system: Italian ryegrass (Lolium multiflorum); experiment: Test A postemergence, visual injury rating; conditions: 0 to 100 scale, 0 is no effect, 100 is complete control, approximately 10 days
# Summary of the method: as §1
# [11] = system: lambsquarters (Chenopodium album); experiment: Test C preemergence, plant response rating; conditions: Preemergence
# Summary of the method: (§2)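 Both timings shared one formulation, a non-phytotoxic solvent mixture with surfactant, and a greenhouse period of 13 to 15 d. Preemergence used seeded loam/sand or silt loam soil, postemergence used 2 to 18 cm plants; visual ratings ran from 0 (no effect) to 100 (complete control).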
# [12] = system: nutsedge, yellow (yellow nutsedge, Cyperus esculentus); experiment: Test C preemergence, plant response rating; conditions: Preemergence
# Summary of the method: as §2
# [13] = system: wheat (winter wheat, Triticum aestivum); experiment: Test C preemergence, plant response rating; conditions: Preemergence
# Summary of the method: as §2
# [14] = system: morningglory (Ipomoea coccinea); experiment: Test C preemergence, plant response rating; conditions: Preemergence
# Summary of the method: as §2
# [15] = system: velvetleaf (Abutilon theophrasti); experiment: Test C preemergence, plant response rating; conditions: Preemergence
# Summary of the method: as §2
# [16] = system: waterhemp (common waterhemp, Amaranthus rudis); experiment: Test C preemergence, plant response rating; conditions: Preemergence
# Summary of the method: as §2
# [17] = system: crabgrass, large (large crabgrass, Digitaria sanguinalis); experiment: Test C postemergence, plant response rating; conditions: for Crabgrass, Large plant response rating: scale 0 to 100 (0 no effect, 100 complete control)
# Source text: (§3) Seeds of plant species selected from blackgrass (Alopecurus myosuroides), ryegrass, Italian (Italian ryegrass, Lolium multiflorum), wheat (winter wheat, Triticum aestivum), galium (catchweed bedstraw, Galium aparine), corn (Zea mays), crabgrass, large (large crabgrass, Digitaria sanguinalis), foxtail, giant (giant foxtail, Setaria faberii), johnsongrass (Sorghum halepense), lambsquarters (Chenopodium album), morningglory (Ipomoea coccinea), nutsedge, yellow (yellow nutsedge, Cyperus esculentus), pigweed (Amaranthus retroflexus), ragweed (common ragweed, Ambrosia elatior), soybean (Glycine max), barnyardgrass (Echinochloa crus-galli), oilseed rape (Brassica napus), pigweed, palmer (palmer pigweed, Amaranthus palmeri), waterhemp (common waterhemp, Amaranthus rudis), velvetleaf (Abutilon theophrasti), kochia (Kochia scoparia), surinam grass (Brachiaria decumbens), nightshade (eastern black nightshade, Solanum ptycanthum), wild poinsettia (Euphorbia heterophylla), windgrass (Apera spica-venti), and oat, wild (wild oat Avena fatua), were planted into a blend of loam soil and sand or a silt loam soil and treated preemergence with test chemicals formulated in a non-phytotoxic solvent mixture which included a surfactant.
# (§4) At the same time, plants selected from these crop and weed species and also chickweed (common chickweed, Stellaria media), buckwheat, wild (wild buckwheat, Polygonum convolvulus), wild mustard (Sinapis arvensis), field poppy (Papaver rhoeas), field violet (Viola arvensis), geranium, cutleaf (cutleaf geranium, Geranium dissectum), Canada thistle (Cirsium arvense), and speedwell (bird's-eye speedwell, Veronica persica), were planted in pots containing Sunshine Redi-Earth® planting medium comprising spaghnum peat moss, vermiculite, starter nutrients and dolomitic limestone and treated with postemergence applications of test chemicals formulated in the same manner. Plants ranged in height from 2 to 18 cm (1- to 4-leaf stage) for postemergence treatments. Treated plants and controls were maintained in a greenhouse for 13 to 15 d, after which time all species were compared to controls and visually evaluated. Plant response ratings, summarized in Table C, are based on a scale of 0 to 100 where 0 is no effect and 100 is complete control. A dash (-) response means no test result.
# [18] = system: ryegrass, Italian (Italian ryegrass, Lolium multiflorum); experiment: Test C postemergence, plant response rating; conditions: for Ryegrass, Italian plant response rating: scale 0 to 100 (0 no effect, 100 complete control)
# Source text: as §3, §4
smiles,measurement,setting,value
FC(F)(F)CCCc1c(Br)cccc1Oc1ncc(Cl)cn1 [Compound 89],Kochia plant response rating,[1]; 31 g ai/ha,80
same,Kochia plant response rating,[1]; 125 g ai/ha,90
same,Wheat plant response rating,[2]; 31 g ai/ha,0
same,Wheat plant response rating,[2]; 125 g ai/ha,20
same,Ragweed plant response rating,[3]; 31 g ai/ha,10
same,Ragweed plant response rating,[3]; 125 g ai/ha,10
same,Galium plant response rating,[4]; 31 g ai/ha,30
same,Galium plant response rating,[4]; 125 g ai/ha,80
same,"Foxtail, Giant plant response rating",[5]; 31 g ai/ha,20
same,"Foxtail, Giant plant response rating",[5]; 125 g ai/ha,50
same,Corn plant response rating,[6]; 31 g ai/ha,10
same,Corn plant response rating,[6]; 125 g ai/ha,20
same,Blackgrass plant response rating,[7]; 31 g ai/ha,20
same,Blackgrass plant response rating,[7]; 125 g ai/ha,60
same,Pigweed plant response rating,[8]; 31 g ai/ha,90
same,Pigweed plant response rating,[8]; 125 g ai/ha,90
same,Barnyardgrass plant response rating,[9]; 31 g ai/ha,30
same,Barnyardgrass plant response rating,[9]; 125 g ai/ha,90
same,"Ryegrass, Italian plant response rating",[10]; 31 g ai/ha,10
same,"Ryegrass, Italian plant response rating",[10]; 125 g ai/ha,30
same,"Plant response rating, Lambsquarters","[11]; 125 g ai/ha, scale of 0 to 100",65
same,"Plant response rating, Lambsquarters","[11]; 31 g ai/ha, scale 0 to 100",0
same,"Plant response rating, Lambsquarters","[11]; 62 g ai/ha, scale 0 to 100",0
same,"Plant response rating, Nutsedge, Yellow","[12]; 125 g ai/ha, scale of 0 to 100",0
same,"Plant response rating, Nutsedge, Yellow","[12]; 31 g ai/ha, scale 0 to 100",0
same,"Plant response rating, Nutsedge, Yellow","[12]; 62 g ai/ha, scale 0 to 100",0
same,"Plant response rating, Wheat","[13]; 125 g ai/ha, scale of 0 to 100",5
same,"Plant response rating, Wheat","[13]; 31 g ai/ha, scale 0 to 100",0
same,"Plant response rating, Wheat","[13]; 62 g ai/ha, scale 0 to 100",0
same,"Plant response rating, Morningglory","[14]; 125 g ai/ha, scale of 0 to 100",20
same,"Plant response rating, Morningglory","[14]; 31 g ai/ha, scale 0 to 100",0
same,"Plant response rating, Morningglory","[14]; 62 g ai/ha, scale 0 to 100",5
same,"Plant response rating, Velvetleaf","[15]; 125 g ai/ha, scale of 0 to 100",60
same,"Plant response rating, Velvetleaf","[15]; 31 g ai/ha, scale 0 to 100",20
same,"Plant response rating, Velvetleaf","[15]; 62 g ai/ha, scale 0 to 100",25
same,"Plant response rating, Waterhemp","[16]; 125 g ai/ha, scale of 0 to 100",100
same,"Plant response rating, Waterhemp","[16]; 31 g ai/ha, scale 0 to 100",85
same,"Plant response rating, Waterhemp","[16]; 62 g ai/ha, scale 0 to 100",100
same,"Plant response rating, Crabgrass, Large","[17]; 16 g ai/ha, scale of 0 to 100",55
same,"Plant response rating, Crabgrass, Large","[17]; 31 g ai/ha, scale 0 to 100",60
same,"Crabgrass, Large plant response rating",[17]; 62 g ai/ha,85
same,"Crabgrass, Large plant response rating",[17]; 125 g ai/ha,90
same,"Plant response rating, Ryegrass, Italian","[18]; 16 g ai/ha, scale of 0 to 100",5
same,"Plant response rating, Ryegrass, Italian","[18]; 31 g ai/ha, scale 0 to 100",5
same,"Ryegrass, Italian plant response rating",[18]; 62 g ai/ha,5
same,"Ryegrass, Italian plant response rating",[18]; 125 g ai/ha,10
